In patent publication US20240199572A1, “COMPOUNDS, COMPOSITIONS, AND METHODS FOR TREATING TYPE 2 DIABETES AND DEMENTIA” (THE BOARD OF TRUSTEES OF THE UNIVERSITY OF ILLINOIS, priority 2021, published 2024):

Tests used:
[1] = biological target: T1, PPARβ/δ (Homo sapiens, UniProt Q03181); assay: PPARβ/δ NHR screen, antagonist mode; conditions: cell-based β-gal reporter assay, 10 μM
T1 sequence (Q03181 1-441): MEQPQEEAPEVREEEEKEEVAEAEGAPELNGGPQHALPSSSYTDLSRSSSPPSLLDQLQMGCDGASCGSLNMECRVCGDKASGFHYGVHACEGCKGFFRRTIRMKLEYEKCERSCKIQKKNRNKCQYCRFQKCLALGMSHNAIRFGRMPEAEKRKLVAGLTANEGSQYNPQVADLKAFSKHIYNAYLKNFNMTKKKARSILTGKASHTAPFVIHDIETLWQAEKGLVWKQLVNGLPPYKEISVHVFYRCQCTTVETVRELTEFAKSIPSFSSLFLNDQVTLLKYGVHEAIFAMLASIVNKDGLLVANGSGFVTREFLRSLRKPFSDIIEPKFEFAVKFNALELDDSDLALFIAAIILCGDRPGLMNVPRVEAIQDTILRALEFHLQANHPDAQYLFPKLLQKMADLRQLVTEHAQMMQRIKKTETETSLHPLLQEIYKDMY
Experimental: (§1) Receptor Binding Assays. Nuclear hormone (NHR) assays were performed by DiscoverX (Fremont, CA) on their NHR-Scan platform of cell-based protein-protein interaction assays. This platform uses a […] reporter that activates upon interaction of full-length receptor protein with steroid coactivator receptor peptides. In agonist mode, activity of CL2-57 at 10 μM was compared to maximal activity of published positive control agonists; in antagonist mode, reduction in activity with 10 μM CL2-57 from that observed at […] of published agonists was quantified.

[2] = biological target: T2, LXRβ (Homo sapiens, UniProt P55055); assay: LXRβ NHR screen (DiscoverX NHR-Scan, β-gal reporter); type: cell-based
T2 sequence (P55055 1-460): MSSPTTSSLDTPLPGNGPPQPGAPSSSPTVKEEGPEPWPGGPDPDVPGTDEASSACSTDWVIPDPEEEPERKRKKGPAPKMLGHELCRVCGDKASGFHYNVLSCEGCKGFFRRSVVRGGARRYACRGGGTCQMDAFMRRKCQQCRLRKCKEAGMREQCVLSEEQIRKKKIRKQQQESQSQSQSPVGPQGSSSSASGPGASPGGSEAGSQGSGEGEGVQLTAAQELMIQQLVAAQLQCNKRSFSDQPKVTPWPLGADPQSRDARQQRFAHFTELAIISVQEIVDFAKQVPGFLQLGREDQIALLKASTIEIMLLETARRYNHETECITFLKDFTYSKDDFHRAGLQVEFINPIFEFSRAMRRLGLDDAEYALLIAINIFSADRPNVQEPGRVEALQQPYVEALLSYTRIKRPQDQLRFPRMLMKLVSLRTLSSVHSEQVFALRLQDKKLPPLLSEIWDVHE
Experimental: as §1

[3] = biological target: T3, RXRγ (Homo sapiens, UniProt P48443); assay: RXRγ NHR screen, antagonist mode; conditions: cell-based β-gal reporter assay, 10 μM
T3 sequence (P48443 1-463): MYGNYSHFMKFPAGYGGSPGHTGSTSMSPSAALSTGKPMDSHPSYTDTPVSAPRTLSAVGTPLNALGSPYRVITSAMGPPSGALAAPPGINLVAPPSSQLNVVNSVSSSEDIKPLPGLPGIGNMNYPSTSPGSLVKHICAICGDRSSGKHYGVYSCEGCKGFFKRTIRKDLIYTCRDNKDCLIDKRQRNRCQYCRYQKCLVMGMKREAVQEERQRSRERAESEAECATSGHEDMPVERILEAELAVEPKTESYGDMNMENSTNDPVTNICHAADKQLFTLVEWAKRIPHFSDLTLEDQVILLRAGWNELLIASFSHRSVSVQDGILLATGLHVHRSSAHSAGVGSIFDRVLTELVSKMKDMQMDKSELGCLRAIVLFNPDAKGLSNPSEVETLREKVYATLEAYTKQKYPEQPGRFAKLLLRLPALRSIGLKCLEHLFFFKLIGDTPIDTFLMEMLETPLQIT
Experimental: as §1

[4] = test system: J774 cells; assay: Lipopolysaccharide-stimulated J774 cells, TNFα and NOS2; type: cell-based; conditions: co-treatment
Source text: qRT-PCR. For cell samples, treated cells were lysed with RLT plus lysis buffer (Qiagen). RNA was isolated with Qiagen RNEASY® Plus columns per manufacturer instructions, then reverse-transcribed to cDNA using […]® III Reverse Transcriptase (200 U/μL, Invitrogen) per supplier protocol. qPCR experiments were either performed with TAQMAN® gene expression master mix (Invitrogen) on a StepOne™ qPCR instrument or with […]® SYBR® Green SuperMix (Quanta Biosciences) on CFX Connect™ Real-Time PCR Detection System (BioRad), with fold-change quantified by ΔΔCt. For animal samples, 100 mg tissue was homogenized in 1 mL acid-guanidinium-phenol based reagent sold under the tradename TRIZOL® (Ambion), mixed vigorously in chloroform, and separated by centrifugation. Aqueous layer containing RNA was added to Qiagen RNEASY® Plus column; remaining stops were as described above for cell lysates.

What does the source list for `CCOC(=O)c1cccc(NC(=O)c2sc(Cl)cc2S(=O)(=O)N(C)c2ccc(OCC)c(OCC)c2)c1` [CL2-57, ethyl 3-(5-chloro-3-(N-(3,4-diethoxyphenyl)-N-methylsulfamoyl)thiophene-2-carboxamido) benzoate]?
Functional mode at PPARβ/δ [1]: weak antagonist; LXRβ NHR screen, activity of CL2-57 (10 μM) as % of T0901317 (1 μM) ([2]; 10 μM): 75%; LXR β/α selectivity by Emax ([2]; cell-based β-gal reporter assays): 2.5 fold; Functional mode at LXR ([2]; cell-based β-gal reporter assays, 10 μM): partial LXR agonist; Functional mode at RXRγ [3]: weak antagonist; LPS-induced increase of NOS2 [4]: dose-dependently reversed; LPS-induced increase of TNFα [4]: dose-dependently reversed
